Patent US20060009433A1, “Neuroprotective spirostenol pharmaceutical compositions” (priority 2003, published 2006)

Key:
[1] = system: differentiated human NT2N neurons; experiment: MTT assay, Aβ1-42-induced toxicity on differentiated NT2N neurons; type: cell-based; conditions: for protection against Aβ-induced toxicity: 25 μM Aβ1-42, 72 hours
rat PC12 cells = experiment: Trypan blue dye exclusion assay, PC12 cells (Example I); type: cell-based; conditions: 100 μM steroid, 72 hours
Protocol: Rat PC12 cells were cultured as previously described. Yao et al., Brain Res. 889, 181-190 (2001). Human NT2 precursor (Ntera2/D1 teratocarcinoma) cells were obtained from Stratagene (La Jolla, Calif.) and cultured following the instructions of the supplier. Differentiated human NT2 neurons (NT2N) were obtained after treatment of the NT2 precursor cells with retinoic acid. Andrews, Dev. […] Aβ was dissolved in media and used either in the aggregated (left overnight at 4° C.) or soluble (containing oligomers such as dimers and tetramers) forms examined by electrophoresis as previously described. Yao et al., Brain Res. (2001). […] Id. Cell viability was measured using the trypan blue exclusion method as previously described. Id. In brief, for these studies, cells were treated for 72 hours with steroids in the presence or absence of increasing concentrations of Aβ. At the end of the incubation, the cells were washed three times with PBS and incubated for 15 minutes with 0.1% trypan blue stain solution at room temperature. After washing three times with PBS, 0.1 N NaOH was added to the cells and trypan blue staining was quantified using the Victor quantitative detection spectrophotometer (EGG-Wallac, Gaithersburg, Md.) at 450 nm. Cell protein levels were determined in the same samples by the method of Bradford (Bradford, Anal. Biochem., 72, 248-254 (1976)), where coomassie blue staining is detected at 590 nm.
The results obtained from using MTT assay were further confirmed with the trypan blue dye exclusion assay. […] Levels of viability were measured using the trypan blue assay as described under Materials and Methods. Results are expressed as fold trypan blue stained cells per total cell protein over control untreated cells. Results shown are means±SD (n=6-12).

Aβ1-42 = Aβ1-42 (Homo sapiens, UniProt P05067); experiment: Cholesterol-protein binding blot assay (CPBBA), Aβ1-42; conditions: for inhibition of binding of radiolabeled 22R-hydroxycholesterol to Aβ1-42: 50 μM Aβ1-42
Protocol: (§1) At the end of the incubation time, samples were separated by 1.5% agarose (Type I-B) gel electrophoresis and transferred to nitrocellulose membrane (Schleicher & Schuell, Keene, N.H.) in 10×SSC buffer. The membrane was exposed to tritium-sensitive screen and analyzed by phosphoimaging using the Cyclone Storage phosphor system (Packard BioScience, Meridien, Conn.). Image-densitometric analysis was performed using the OptiQuant software (Packard). […] Low molecular weight unincorporated 22i-hydroxycholesterol is separated and eliminated during electrophoresis.
The membrane with the 22R-hydroxycholesterol-Aβ peptide complexes was then used to examine Aβ levels. Membranes were blocked by incubating the nitrocellulose in 5% milk and treated for immunodetection of Aβ using ECL reagents (Amersham-Pharmacia, Piscataway, N.J.). Li et al., Proc. Natl. Acad. Sci. USA, 98, 1267-1272 (2001). Anti-Aβ antibody and secondary antibodies were used at 0.2 μg/ml and 1:5000 dilution, respectively.

Aβ1-40 = molecular target: T1, Aβ1-40 (Homo sapiens, UniProt P05067); experiment: CPBBA, Aβ1-40; type: binding
T1 construct: purchased American Peptide Co. (Sunnyvale, Calif.)
Protocol: as §1

PC12 cells = experiment: Cellular ATP levels (ATPLite-M) in Aβ-treated PC12 cells; type: cell-based, rat; conditions: 0.1 and 1.0 μM Aβ
Protocol: PC12 cells (rat pheochromocytoma neurons) from ATCC (Manassas, Va.) were cultured at 37° C. and 5% CO2 in RPMI 1640 medium devoid of glutamine and supplemented with 10% fetal bovine serum and 5% horse serum. Yao Z, Drieu K and Papadopoulos V., The Gingko biloba extract EGb 761 rescues PC12 neuronal cells from β-amyloid-induced cell death by inhibiting the formation of (3-amyloid-derived diffusible neurotoxic ligands, Brain Res, 889, 181-190 (2001). Cells were seeded in 96-well plates (8×10^4 cells/well). After an overnight period of incubation, increasing concentrations of aggregated Aβ (0.1, 1 and 10 μM) were added to the cells in the presence or absence of the indicated concentrations of the SP compounds to be tested. After 72-hours incubation time various parameters, markers of cell viability, were determined. Mouse MA-10 tumor Leydig cells were maintained at 37° C. in DMEM/Ham's F12 (Biofluids, Rockville, Md.) medium supplemented with 5% heat-inactivated fetal calf serum and 2.5% horse serum in 5% CO2. Cells were plated on 96-well plates at the density of 2.5×10^4 cells/well for overnight. The cells were stimulated with the indicated concentrations of the various SP compounds in 0.2 ml/well serum-free medium for 2 hours. The culture medium was collected and tested for progesterone production by radioimmunoassay.
Cellular ATP concentrations were measured using the ATPLite-M™ luminescence assay (Packard BioSciences Co.). For this assay, cells were cultured on black 96-well ViewPlate™ and the ATP concentrations were measured on a TopCount NXT™ counter (Packard BioSciences Co.) following the recommendations of the manufacturer.

NT2 cells [2] = experiment: Flow cytometry of NT2 cells (cell cycle); type: cell-based, human; conditions: 25 μM, 12 days of treatment
Protocol: Human NT2 precursor (Ntera2/D 1 teratocarcinoma) cells were obtained from Stratagene (La Jolla, Calif., USA) and cultured following the instructions of the supplier. […] After trypsinization, the cells were collected, suspended (1-2×10^6 cells in 0.1 ml citrate/DMSO solution), stained with a solution containing propidium iodide (50 μg/ml) and RNase (10 μg/ml), and subjected to flow cytometric analysis in an FACS Scan flow cytometer (Becton Dickinson, Menlo Park, Calif., USA) equipped with a Modfit software program (Vindelov et al., Cytometry, 3, 332 (1983)).

[3] = system: PC12 cells, MDA-MB-231 cells or the human glioma cell line U87; experiment: Differentiation in other cell lines; type: cell-based; conditions: data not shown
NT2 cells [4] = experiment: BrdU assay, NT2 cell proliferation; type: cell-based, human
[5] = system: differentiated NT2N neuronal cells; experiment: MTT assay, viability of differentiated NT2N neuronal cells; type: cell-based, human
From the text: During CNS development in vivo, cells actively participate in two opposing processes: proliferation and death (Ross, Trends Neurosci., 19, 62 (1996)). In NT2 cells, early programmed cell death (apoptosis) has been associated with the induction of differentiation by RA, it occurs mainly in undifferentiated cells, and it coincides with first detection of the neuronal phenotye (NT2N), i.e., significant apoptotic cell death could be quantified during the third and fourth days of the RA treatment using annexin V labeling as a marker of apoptosis (Guillemain et al., J. Neurosci. Res., 71, 38 (2003)). […] Thus, apoptotic cell death of undifferentiated NT2 cells also occurred during 22R-hydroxycholesterol-induced differentiation.

Chain of Aβ1-42 (P05067 672-713): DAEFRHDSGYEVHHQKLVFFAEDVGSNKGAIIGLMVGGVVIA
T1 sequence (P05067 672-711): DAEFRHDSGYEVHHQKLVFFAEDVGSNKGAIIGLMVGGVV

Structure (SMILES): CC(C)CC[C@@H](O)[C@@H](C)[C@H]1CC[C@H]2[C@@H]3CC=C4C[C@@H](O)CC[C@]4(C)[C@H]3CC[C@]12C [SP222, 22R-hydroxycholesterol]
- protection against Aβ-induced toxicity ([1]; 1 μM compound): 50%
- protection against Aβ-induced toxicity ([1]; 10 μM compound): 100%
- IC50 ([1]; Homo sapiens, Neuron, NT2T cells, read-out: IC50 of protection from Aβ-induced toxicity): 3 µM
- rescue from Aβ1-42-induced cell death (rat PC12 cells): rescued
- rescue from Aβ25-35-induced cell death (rat PC12 cells): Neither 22R-hydroxycholesterol nor DHEA could rescue
- inhibition of binding of radiolabeled 22R-hydroxycholesterol to Aβ1-42 (Aβ1-42; 50 μM unlabeled): 50%
- inhibition of binding of radiolabeled 22R-hydroxycholesterol to Aβ1-42 (Aβ1-42; 200 μM unlabeled): 90%
- binding to Aβ1-42 (Aβ1-42; CPBBA, native conditions): binds
- binding to Aβ1-40 (Aβ1-40): barely interacts
- reversal of Aβ-induced decrease in ATP levels (PC12 cells): did not block
- percentage of cells in the G2/M phase (NT2 cells [2]; from 34.43%): 15.90%
- percentage of cells in the G0/G1 phase (NT2 cells [2]; from 35.32%): 50.34%
- induction of differentiation in PC12, MDA-MB-231 or U87 cells [3]: such an effect was not found
- NT2 cell proliferation at 25 μM (NT2 cells [4]; 25 μM): significantly inhibited
- NT2 cell proliferation at 50 μM (NT2 cells [4]; 50 μM): significantly inhibited
- effect on viability of differentiated NT2N neuronal cells [5]: had no effect
